This is an account of results in US20230060873A1, “COMPOUNDS AND METHODS FOR FORMING ION CHANNELS IN BIOLOGICAL MEMBRANES” (Washington University, priority 2021, published 2023).

Assay [1] has as its system B. subtilis cells. Put plainly: Lactate dehydrogenase release (resofurin fluorescence), MAcBCE/MAkBCE and controls. The following applies: 37° C, potassium lactate/NAD+ solution. Format: cell-based, Bacillus subtilis. As to the method: A 2 mL liquid culture of transformed B. subtilis cells was grown at 37° C. in LB media supplemented with […] kanamycin, until OD600=0.6. Cells were collected by centrifugation at 2000 rpm over 3 min. The bacterial pellet was washed twice in lactate/NAD^+ solution (95 mM potassium lactate, 10 mM nicotinamide adenine dinucleotide (NAD^+), 10 mM HEPES, pH adjusted to 7.4 with KOH). After the last centrifugation step, the bacteria were resuspended until OD600=1.0 in the lactate/NAD^+ solution, then diluted 100× in the same solution. The working fluorophore solution was a 1 mM of resazurin sodium salt (Alfa Cesar) in water. The experiment was started with 3 mL of lactate/NAD^+ solution in a quartz cuvette, then 3.1 μL of resazurin solution was added (timepoint t1, 50 sec) for a 1 μM final concentration, followed by the addition of 100 μL of the diluted B. subtilis suspension (timepoint t2, 100 sec). After 150 sec (timepoint t3, 250 sec), 10 μL of diaphorase (Worthinton Biochemical Corporation) 10 mg/mL solution was added. The final step involved the addition of 0.62 μL of a 10 mM stock solution of dialkylated diaza lariat ether (LEC10) in TFE (timepoint t4, 400 sec), for a final LEC10 concentration of 2 μM; or 3.1 μL of a 2 mM stock solution of valinomycin in DMSO, for a final valinomycin concentration of 2 μM; or 3.1 μL of a 20 mg/mL stock solution of lysozyme in lactate/NAD^+ solution, for a final lysozyme concentration of 20 μg/mL; or 3.1 μL of 10 mM stock solution of each MAcBCE or MAkBCE compounds in TFE, for final concentrations of 10 μM. Fluorescence intensity was recorded each second using a Horiba Fluoromax 4 spectrometer (λexcitation=550 nm; λemission=583 nm). […] To normalize, the fluorescence intensity was divided by the fluorescence level just before timepoint t4. […]
Experiments were repeated at least three times per condition. To normalize, the fluorescence intensity was divided by the fluorescence level just before timepoint t4.

Assay [2] has as its system B. subtilis membrane. The experiment in a line: DiSC3(5) depolarization assay, lariat ethers. The class given is cell-based, Bacillus subtilis. The following applies: 2 μM compound; 60 mM KCl, NaCl or NMDG-Cl; NMDG-MeSO3 solution; 25° C. As to the method:
Dialkylated lariat ethers LEC6-LEC14 were then tested for their ability to depolarize a B. subtilis membrane using the fluorescent dye 3,3-dipropylthiadicarbocyanine (DiSC3(5)), which undergoes membrane voltage-dependent partitioning between the intracellular and the extracellular medium. FIGS. 23-31 show the time course of the DiSC3(5) fluorescence due to the activity of dialkylated lariat ethers with alkyl chains 6 to 14 carbons in length. The experiment was performed in a NMDG-MeSO3 solution (100 mM NMDG, 10 mM HEPES, pH adjusted to 7.4 with methanesulfonic acid). The events are: t1, addition of dye; t2, addition of B. subtilis; t3, addition of a 2 M KCl or a 2 M NMDG-Cl solution up to a final concentration of 60 mM; t4, addition of dialkylated lariat ether up to 2 μM. Control experiments were performed that were similar to the two previously described experiments, with the exception that additional NMDG-MeSO3 solution without cells was added at timepoint t2. The experiments were normalized relative to the final fluorescence intensity in the control experiments, as described below.
To conduct the experiments shown in FIGS. 23-31, a 2-mL liquid culture of B. subtilis cells was grown at 37° C. in LB media until OD600=0.600, and then collected by centrifugation at 2000 rpm during 3 min. The bacteria were washed once in NMDG-MeSO3 solution (100 mM NMDG, 10 mM HEPES, pH adjusted to 7.4 with methanesulfonic acid) or dextrose solution (200 mM dextrose, 10 mM Tris, pH adjusted to 7.4 with HCl) depending on the experiment. The centrifugation step was repeated and the bacteria were resuspended until OD600=1.0 in the same solution. The working dye solution was a 200 μM solution of DiSC3(5) (3,3′-dipropylthiadicarbocyanine iodide; Tokyo Chemical Industry) in DMSO. […] After 150 sec (timepoint t3, 250 sec) the fluorescence stabilized to a minimum intensity and 100 μL of 2M NMDG-Cl, 2M NaCl or 2 M KCl solution was added to reach a about 60 mM final concentration of the salt. […] Fluorescence intensity was recorded each second using a Horiba Fluoromax 4 spectrometer (excitation wavelength=640 nm; emission wavelength=670 nm). […] To normalize the fluorescence, experiments in the same conditions but without adding bacteria were performed, normalization was done by dividing the fluorescence by the final fluorescence level of these experiments.
Cell hyperpolarization (more negatively charged inside the cell) results in an uptake of the dye, while cell membrane depolarization (more positively charged inside the cell) results in a release of the dye. The accumulation of the dye in the interior of the cell can be detected by a decrease in fluorescence due to self-quenching, which enables the dye to be utilized as an indirect reporter of changes in cell membrane voltage. […]

As for `CC(C)[C@@H]1NC(=O)[C@H](C)OC(=O)[C@@H](C(C)C)NC(=O)[C@@H](C(C)C)OC(=O)[C@H](C(C)C)NC(=O)[C@H](C)OC(=O)[C@@H](C(C)C)NC(=O)[C@@H](C(C)C)OC(=O)[C@H](C(C)C)NC(=O)[C@H](C)OC(=O)[C@@H](C(C)C)NC(=O)[C@@H](C(C)C)OC1=O` [valinomycin], the “resofurin fluorescence (LDH release)” value in assay [1] (2 μM) was “no effect”. The “relative DiSC3(5) release in the presence of different cations” value in assay [2] is reported as “only when K^+ was added”.
For the compound lysozyme, the “resofurin fluorescence (LDH release)” value in assay [1] (20 μg/mL) is recorded as “increase in the resofurin fluorescence levels”.
